Results published in patent US20210214406A1, “AMYLOSPHEROID (ASPD)-LIKE STRUCTURE AND PHARMACEUTICAL COMPOSITION” (TAO HEALTH LIFE PHARMA CO., LTD., priority 2016, published 2021).

Experiments:
[1] = test system: New Zealand white rabbits; assay: Immunogenicity of synthetic ASPD in rabbits (serum dot blot); format: in vivo, rabbit; details: rabbits immunized six times with 100 μg; Freund's adjuvant, aluminum hydroxide adjuvant, or no adjuvant
Experimental: New Zealand white rabbits (3 per each condition) were immunized six times with 100 μg of synthetic ASPD using Freund's adjuvant, aluminum hydroxide adjuvant, and no adjuvant. Thereafter, the whole blood was collected and the reactivity to the synthetic ASPD in serum was evaluated by dot blot.

[2] = Storage stability at −80° C. (calibration curve slope in sandwich ELISA with two ASPD-specific antibodies); format: physicochemical; details: stored at −80° C. for 0 month, 3 months, and 6 months
Experimental: A cell secreted-type ASPD structure obtained by expressing hAPP695-sw-G33I of Test Example 14 was stored at −80° C. for 0 month, 3 months, and 6 months. The samples thus obtained were subjected to measurement performed with a sandwich ELISA using two types of ASPD-specific antibodies (neutralizing antibodies) to prepare a calibration curve.

[3] = biological target: anti-ASPD polyclonal antibody (rpASD1); assay: Dissociation constant with rpASD1 antibody by surface plasmon resonance; format: binding, rabbit; details: ASPD immobilized as ligand, rpASD1 as analyte, SPR; result in words
old cynomolgus monkey = assay: Subcutaneous immunization of old cynomolgus monkey with ASPD; format: in vivo

dissociation constant (KD) / reactivity to rpASD1 [3]: equivalent
Substance: synthetic ASPD: in vitro synthesized spherical Aß assembly produced by slowly stirring a liquid containing wild type Aß1-42
reactivity to the synthetic ASPD in serum (dot blot) [1]: sufficient reactivity was obtained in all the rabbits even without using adjuvant
storage stability (slope of primary regression line of ELISA calibration curve) [2]: low storage stability
brain glucose metabolism (neural activity) (old cynomolgus monkey): increased
